# According to US20260078114A1, “COMPOUND USED AS INHIBITOR OF CDK4 KINASE AND USE THEREOF” (TYK MEDICINES, INC., priority 2022, published 2026):
# Assays:
# [1] = tested on: Human breast cancer cell MCF-7; assay: Cellular antiproliferative assay (MTT, 5 days), MCF-7; assay type: cell-based; conditions: Homo sapiens, MCF7, 120 h, MCF-7 cells, 5 days incubation
# Summary of the method: (§1)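 MTT read-out at 570 nm after 3 h MTT incubation and isopropanol/HCl/NP-40 solubilisation; cells seeded at 50,000 cells/ml in DMEM with 10% FBS, 37 °C, 5% CO2, compound exposure 5 days. Viability calculated relative to 0.1% DMSO control and blank medium.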
# [2] = tested on: ovarian cancer cell A2780; assay: Cellular antiproliferative assay (MTT, 5 days), A2780; assay type: cell-based, human; conditions: Homo sapiens, 120 h, A2780 cells, 5 days incubation
# Summary of the method: as §1
# [3] = tested on: human mantle cell lymphoma cell JEKO-1; assay: Cellular antiproliferative assay (MTT, 5 days), JEKO-1; assay type: cell-based; conditions: Homo sapiens, 120 h, JEKO-1 cells, 5 days incubation
# Summary of the method: as §1
# [4] = Preclinical rat pharmacokinetic test; assay type: in vivo; conditions: male SD rats, gavage (p.o.), 10 mg/kg, plasma
# Description: Healthy adult SD rats, male, 6-8 weeks old, weighing 200-300 g. EDTA-Na2 anticoagulant. Analytical balance, animal weight scale, magnetic stirrer, freezing centrifuge, single-channel manual pipette. About 10 mg of the sample to be tested was precisely weighed, the converted 5% DMSO was added to dissolve, and then 10 percent solutol HS-15 and 85% saline were added, ultrasonic treatment was performed, vortex mixed, to obtain the solution having a concentration of 1 mg/mL; freshly prepared before use. Animals were kept in rat cages and fasted (not less than 10 h) the day before the test, but not water fasted; on the day of the test, they were weighed and labeled at the tail. Blank blood was collected before drug administration. Blood was collected from the tail vein. • Route of administration: gavage (p.o.). • Dose: 10 mg/kg • Administration volume: 10 mL/kg • Operation procedure: Hold the rat with the left hand with anti-biting gloves, made it stand upright, extent the 16-gauge gavage needle from the throat in the mouth, and then injected the drug into the stomach when there was no obvious resistance. Before and 0.5 […] and 24 h after the administration of the drug, 0.1 ml of whole blood from the test animal was collected in EDTA-Na2 anticoagulant tubes, which was mixed upside down for 3-4 times and then centrifuged at 10,000 g for 5 min at 4° C. to isolate the plasma, which was stored at -80° C. for testing. Blood was collected from the tail vein. […] Pipetted 25 μL of rat blank plasma in a centrifuge tube respectively, added 25 μL of prepared standard series solution (prepared in methanol), then added 200 μL of internal standard solution (prepared in methanol), vortexed and mixed for 2 min, centrifuged at 4° C., 10,000 g for 10 min. Unknown plasma samples treatment: 25 μL of rat plasma containing drug was aspirated, 25 μL of methanol and 200 μL of internal standard solution were added sequentially, vortexed and mixed for 2 min, and then centrifuged at 4° C. and 10,000 g for 10 min. The supernatant was extracted for LC/MS/MS detection. Shimadzu liquid phase and Triple Quad TM 6500+AB mass spectrometry were utilized to establish a quantitative assay for the compounds to be tested. The pro-drug concentration in plasma was determined. The blood drug concentration-time curves were plotted, and the main pharmacokinetic parameters were calculated using the non-compartment model in winnonlin Phoenix software, and the detailed data were shown in Table 3.
SMILES,IC50 [1] [µM],IC50 [2] [µM],IC50 [3] [µM],HL— [4] [h]
"CC(C)n1c(N2CCOCC2)nc2c(F)cc(-c3nc(N[C@@H]4CCOC[C@H]4O)ncc3Cl)cc21 [TB-12, (3S,4R)-4-((5-chloro-4-(4-fluoro-1-isopropyl-2-morpholino-1H-benzo[d]imidazol-6-yl)pyrimidin-2-yl)amino)tetrahydro-2H-pyran-3-ol]",≤ 0.5,≤ 0.5,≤ 0.5,3.14
CCS(=O)(=O)N1CCC(Nc2ncc(Cl)c(-c3cc(F)c4nc(N5CCOC5=O)n(C(C)C)c4c3)n2)CC1 [TB-31],≤ 0.5,≤ 0.5,≤ 0.5,1.34
"C[C@H]1CCN(C)c2nc3c(F)cc(-c4nc(N[C@@H]5CCOC[C@H]5O)ncc4Cl)cc3n21 [TB-92, (3S,4R)-4-((5-chloro-4-((S)-9-fluoro-1,4-dimethyl-1,2,3,4-tetrahydrobenzo[4,5]imidazo[1,2-a]pyrimidin-7-yl)pyrimidin-2-yl)amino)tetrahydro-2H-pyran-3-ol]",≤ 0.5,≤ 0.5,≤ 0.5,1.21
